Assay results taken from the NIST ThermoML archive (doi:10.1021/je7005538).
Several values for one entry are separate records, joined by “and”; a condition that tells them apart may be missing. Equal values may be shown once.

Test: xn = mol fraction of the nth substance listed
Details: Fluid (supercritical or subcritical phases), Vibrating tube method

Cc1c(C)c2c(c(C)c1O)CC[C@@](C)(CCC[C@H](C)CCC[C@H](C)CCCC(C)C)O2 [(+)-α-tocopherol] + O=C=O
mass density
Details | x1 = 0.0004 | x1 = 0.00042 | x1 = 0.00043 | x1 = 0.0005 | x1 = 0.00059 | x1 = 0.00074 | x1 = 0.00081
323.15 K, 10000 kPa | 398.5 kg/m3 | 398.3 kg/m3 and 398.5 kg/m3 | 398.3 kg/m3 | 398.4 kg/m3 | 398.8 kg/m3 | 398.9 kg/m3 | 398.7 kg/m3
323.15 K, 15000 kPa | 703.6 kg/m3 | 703.1 kg/m3 and 703.4 kg/m3 | 703.4 kg/m3 | 703.5 kg/m3 | 703.4 kg/m3 | 704.1 kg/m3 | 704.1 kg/m3
323.15 K, 20000 kPa | 786.2 kg/m3 | 785.8 kg/m3 and 786 kg/m3 | 786 kg/m3 | 786 kg/m3 | 786 kg/m3 | 786.6 kg/m3 | 786.6 kg/m3
323.15 K, 30000 kPa | 871.2 kg/m3 | 870.9 kg/m3 and 871.1 kg/m3 | 871 kg/m3 | 871.1 kg/m3 | 871.1 kg/m3 | 871.5 kg/m3 | 871.6 kg/m3
323.15 K, 40000 kPa | 923.3 kg/m3 | 923.1 kg/m3 and 923.3 kg/m3 | 923.3 kg/m3 | 923.3 kg/m3 | 923.2 kg/m3 | 923.6 kg/m3 | 923.6 kg/m3
333.15 K, 10000 kPa | 297.2 kg/m3 | 297.1 kg/m3 and 296.8 kg/m3 | 296.9 kg/m3 | 297.1 kg/m3 | 297.3 kg/m3 | 297.7 kg/m3 | 297.7 kg/m3
333.15 K, 15000 kPa | 608.6 kg/m3 | 608.9 kg/m3 and 608.8 kg/m3 | 608.7 kg/m3 | 608.7 kg/m3 | 609.3 kg/m3 | 609.3 kg/m3 | 609.4 kg/m3
333.15 K, 20000 kPa | 725.7 kg/m3 | 725.6 kg/m3 and 725.5 kg/m3 | 725.5 kg/m3 | 725.7 kg/m3 | 725.8 kg/m3 | 726.1 kg/m3 | 726.2 kg/m3
333.15 K, 30000 kPa | 830.3 kg/m3 | 830.3 kg/m3 and 830.2 kg/m3 | 830.2 kg/m3 | 830.3 kg/m3 | 830.5 kg/m3 | 830.7 kg/m3 | 830.7 kg/m3
333.15 K, 40000 kPa | 890.2 kg/m3 | 890.2 kg/m3 and 890.1 kg/m3 | 890.1 kg/m3 | 890.1 kg/m3 | 890.3 kg/m3 | 890.5 kg/m3 | 890.5 kg/m3
